Reference: patent US9499550B2 (BRISTOL-MYERS SQUIBB COMPANY, priority 2012, dated 2016)
Like-named read-outs stand apart in the source and are kept apart here.

What was measured:
[1] = system: HCV genotype 1b (Con1) replicon in HUH-7 cells; experiment: HCV replicon luciferase reporter assay, genotype 1b; format: cell-based; settings: Hepatitis C virus, Huh-7, 72 h, HCV genotype 1b replicon luciferase, 3 days incubation
How it was run: (§1)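 Replicon inhibition for both genotypes was measured as Renilla luciferase signal (EnduRen, 7.5 μM final, 2 h) after 3-day, 37° C exposure of replicon-bearing HUH-7 cells in 4% FCS DMEM, 0.5% DMSO. The 1b construct carries S1179I; the 1a H77 construct carries P1496L and S2204I. Twenty-point, 3-fold dilutions were fitted four-parametrically for EC50, and CC50 was taken from multiplexed Cell Titer-Blue.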

[2] = system: HCV genotype 1a (H77 strain) replicon in HUH-7 cells; experiment: HCV replicon luciferase reporter assay, genotype 1a; format: cell-based; settings: Hepatitis C virus, Huh-7, 72 h, HCV genotype 1a replicon luciferase, 3 days incubation
How it was run: as §1

[3] = GETYPE1B, read-out: LE_1b (EC50, range)
[4] = GETYPE1A, read-out: LE_1a (EC50, range)

Compound	EC50 ([1]; read-out: LE_1b (EC50, range)) [nM]	EC50 ([2]; read-out: LE_1a (EC50, range)) [nM]	EC50 ([1]; GETYPE1B, read-out: LE_1b (EC50)) [nM]	EC50 [1, 3] [nM]	EC50 ([2]; GETYPE1A, read-out: LE_1a (EC50)) [nM]	EC50 [2, 4] [nM]
CCOc1ccc2nc(O)c(O[C@@H]3C[C@H]4C(=O)N[C@]5(C(=O)NS(=O)(=O)C6(C)CC6)C[C@H]5/C=C\CC[C@@H](C)C[C@@H](CC)[C@H](NC(=O)OC(C)(C)C)C(=O)N4C3)nc2c1 [Compound 4361, tert-butyl ((2R,6S,7R,9R,13aS,14aR,16aS,Z)-2-((7-ethoxy-3-hydroxyquinoxalin-2-yl)oxy)-7-ethyl-9-methyl-14a-(((1-methylcyclopropyl)sulfonyl)carbamoyl)-5,16-dioxo-1,2,3,5,6,7,8,9,10,11,13a,14,14a,15,16,16a-hexadecahydrocyclopropa[e]pyrrolo[1,2-a][1,4]diazacyclopentadecin-6-yl)carbamate]	5.01 to 35	35 to 620	–	–	–	–
CC[C@@H]1C[C@H](C)CC/C=C\[C@@H]2C[C@@]2(C(=O)NS(=O)(=O)C2(C)CC2)NC(=O)[C@@H]2C[C@@H](Oc3nc4cc(OC(C)C)ccc4nc3C(F)(F)F)CN2C(=O)[C@H]1NC(=O)OC(C)(C)C [Compound 4362, tert-butyl ((2R,6S,7R,9R,13aS,14aR,16aS,Z)-7-ethyl-2-((7-isopropoxy-3-(trifluoromethyl)quinoxalin-2-yl)oxy)-9-methyl-14a-(((1-methylcyclopropyl)sulfonyl)carbamoyl)-5,16-dioxo-1,2,3,5,6,7,8,9,10,11,13a,14,14a,15,16,16a-hexadecahydrocyclopropa[e]pyrrolo[1,2-a][1,4]diazacyclopentadecin-6-yl)carbamate]	0.51 to 1	1.01 to 5	–	–	–	–
CCOc1ccc2nc(C(F)(F)F)c(O[C@@H]3C[C@H]4C(=O)N[C@]5(C(=O)NS(=O)(=O)C6(C)CC6)C[C@H]5/C=C\CC[C@@H](C)C[C@@H](CC)[C@H](NC(=O)OC(C)(C)C)C(=O)N4C3)nc2c1 [Compound 4363, tert-butyl ((2R,6S,7R,9R,13aS,14aR,16aS,Z)-2-((7-ethoxy-3-(trifluoromethyl)quinoxalin-2-yl)oxy)-7-ethyl-9-methyl-14a-(((1-methylcyclopropyl)sulfonyl)carbamoyl)-5,16-dioxo-1,2,3,5,6,7,8,9,10,11,13a,14,14a,15,16,16a-hexadecahydrocyclopropa[e]pyrrolo[1,2-a][1,4]diazacyclopentadecin-6-yl)carbamate]	0.1 to 0.5	1.01 to 5	–	–	–	–
CC[C@@H]1C[C@H](C)CC/C=C\[C@@H]2C[C@@]2(C(=O)NS(=O)(=O)C2(C)CC2)NC(=O)[C@@H]2C[C@@H](Oc3cc4nc(OC)c(C(F)(F)F)nc4cc3OC)CN2C(=O)[C@H]1NC(=O)OC(C)(C)C [Compound 4365, tert-butyl ((2R,6S,7R,9R,13aS,14aR,16aS,Z)-2-((3,7-dimethoxy-2-(trifluoromethyl)quinoxalin-6-yl)oxy)-7-ethyl-9-methyl-14a-(((1-methylcyclopropyl)sulfonyl)carbamoyl)-5,16-dioxo-1,2,3,5,6,7,8,9,10,11,13a,14,14a,15,16,16a-hexadecahydrocyclopropa[e]pyrrolo[1,2-a][1,4]diazacyclopentadecin-6-yl)carbamate]	5.01 to 35	5.01 to 35	–	–	–	–
COc1ccc2nc(C)c(O[C@@H]3C[C@H]4C(=O)N[C@]5(C(=O)NS(=O)(=O)C6(C)CC6)C[C@H]5/C=C\CC[C@@H](C)C[C@@H](C)[C@H](NC(=O)OC(C)(C)C(F)(F)F)C(=O)N4C3)nc2c1 [Compound 4366]	–	–	0.25	0.1 to 0.5	0.58	0.51 to 1
COc1ccc2nc(OC)c(O[C@@H]3C[C@H]4C(=O)N[C@]5(C(=O)NS(=O)(=O)C6(C)CC6)C[C@H]5/C=C\CC[C@@H](C)C[C@@H](C)[C@H](NC(=O)OC(C)(C)C)C(=O)N4C3)cc2c1 [Compound 4373, tert-butyl ((2R,6S,7R,9R,13aS,14aR,16aS,Z)-2-((2,6-dimethoxyquinolin-3-yl)oxy)-7,9-dimethyl-14a-(((1-methylcyclopropyl)sulfonyl)carbamoyl)-5,16-dioxo-1,2,3,5,6,7,8,9,10,11,13a,14,14a,15,16,16a-hexadecahydrocyclopropa[e]pyrrolo[1,2-a][1,4]diazacyclopentadecin-6-yl)carbamate]	0.1 to 0.5	0.1 to 0.5	–	–	–	–
COc1ccc2c(O[C@@H]3C[C@H]4C(=O)N[C@]5(C(=O)NS(=O)(=O)C6(C)CC6)C[C@H]5/C=C\CC[C@@H](C)C[C@@H](C)[C@H](NC(=O)OC(C)(C)C)C(=O)N4C3)ncc(F)c2c1 [Compound 4374, tert-butyl ((2R,6S,7R,9R,13aS,14aR,16aS,Z)-2-((4-fluoro-6-methoxyisoquinolin-1-yl)oxy)-7,9-dimethyl-14a-(((1-methylcyclopropyl)sulfonyl)carbamoyl)-5,16-dioxo-1,2,3,5,6,7,8,9,10,11,13a,14,14a,15,16,16a-hexadecahydrocyclopropa[e]pyrrolo[1,2-a][1,4]diazacyclopentadecin-6-yl)carbamate]	0.1 to 0.5	1.01 to 5	–	–	–	–
COc1ccc2c(Cl)ncc(O[C@@H]3C[C@H]4C(=O)N[C@]5(C(=O)NS(=O)(=O)C6(C)CC6)C[C@H]5/C=C\CC[C@@H](C)C[C@@H](C)[C@H](NC(=O)OC(C)(C)C)C(=O)N4C3)c2c1 [Compound 4375, tert-butyl ((2R,6S,7R,9R,13aS,14aR,16aS,Z)-2-((1-chloro-6-methoxyisoquinolin-4-yl)oxy)-7,9-dimethyl-14a-(((1-methylcyclopropyl)sulfonyl)carbamoyl)-5,16-dioxo-1,2,3,5,6,7,8,9,10,11,13a,14,14a,15,16,16a-hexadecahydrocyclopropa[e]pyrrolo[1,2-a][1,4]diazacyclopentadecin-6-yl)carbamate]	0.51 to 1	1.01 to 5	–	–	–	–
COc1ccc2nc(OC)c(O[C@@H]3C[C@H]4C(=O)N[C@]5(C(=O)NS(=O)(=O)C6(CF)CC6)C[C@H]5/C=C\CC[C@@H](C)C[C@@H](C)[C@H](NC(=O)OC(C)(C)C)C(=O)N4C3)cc2c1 [Compound 4376, tert-butyl ((2R,6S,7R,9R,13aS,14aR,16aS,Z)-2-((2,6-dimethoxyquinolin-3-yl)oxy)-14a-(((1-(fluoromethyl)cyclopropyl)sulfonyl)carbamoyl)-7,9-dimethyl-5,16-dioxo-1,2,3,5,6,7,8,9,10,11,13a,14,14a,15,16,16a-hexadecahydrocyclopropa[e]pyrrolo[1,2-a][1,4]diazacyclopentadecin-6-yl)carbamate]	0.1 to 0.5	1.01 to 5	–	–	–	–
CC[C@@H]1C[C@H](C)CC/C=C\[C@@H]2C[C@@]2(C(=O)NS(=O)(=O)C2(C)CC2)NC(=O)[C@@H]2C[C@@H](Oc3cc4cc(OC)ccc4nc3OC)CN2C(=O)[C@H]1NC(=O)OC(C)(C)C [Compound 4377, tert-butyl ((2R,6S,7R,9R,13aS,14aR,16aS,Z)-2-((2,6-dimethoxyquinolin-3-yl)oxy)-7-ethyl-9-methyl-14a-(((1-methylcyclopropyl)sulfonyl)carbamoyl)-5,16-dioxo-1,2,3,5,6,7,8,9,10,11,13a,14,14a,15,16,16a-hexadecahydrocyclopropa[e]pyrrolo[1,2-a][1,4]diazacyclopentadecin-6-yl)carbamate]	0.1 to 0.5	0.51 to 1	–	–	–	–
COc1ccc2c(O[C@@H]3C[C@H]4C(=O)N[C@]5(C(=O)NS(=O)(=O)C6(CF)CC6)C[C@H]5/C=C\CC[C@@H](C)C[C@@H](C)[C@H](NC(=O)OC(C)(C)C(F)(F)F)C(=O)N4C3)ncc(F)c2c1 [Compound 4378]	–	–	–	0.51 to 1	–	1.01 to 5
CC[C@@H]1C[C@H](C)CC/C=C\[C@@H]2C[C@@]2(C(=O)NS(=O)(=O)C2(C)CC2)NC(=O)[C@@H]2C[C@@H](Oc3ncc(F)c4cc(OC)ccc34)CN2C(=O)[C@H]1NC(=O)OC(C)(C)C(F)(F)F [Compound 4379]	–	–	–	0.51 to 1	–	1.01 to 5
COc1ccc2c(Cl)ncc(O[C@@H]3C[C@H]4C(=O)N[C@]5(C(=O)NS(=O)(=O)C6(CF)CC6)C[C@H]5/C=C\CC[C@@H](C)C[C@@H](C)[C@H](NC(=O)OC(C)(C)C)C(=O)N4C3)c2c1 [Compound 4380]	1.01 to 5	1.01 to 5	–	–	–	–
CC[C@@H]1C[C@H](C)CC/C=C\[C@@H]2C[C@@]2(C(=O)NS(=O)(=O)C2(C)CC2)NC(=O)[C@@H]2C[C@@H](Oc3ncc(Cl)c4ccc(OC)cc34)CN2C(=O)[C@H]1NC(=O)OC(C)(C)C [Compound 4381]	0.51 to 1	1.01 to 5	–	–	–	–
COc1ccc2c(O[C@@H]3C[C@H]4C(=O)N[C@]5(C(=O)NS(=O)(=O)C6(CF)CC6)C[C@H]5/C=C\CC[C@@H](C)C[C@@H](C)[C@H](NC(=O)OC(C)(C)C)C(=O)N4C3)ncc(F)c2c1 [Compound 4382, tert-butyl ((2R,6S,7R,9R,13aS,14aR,16aS,Z)-2-((4-fluoro-6-methoxyisoquinolin-1-yl)oxy)-14a-(((1-(fluoromethyl)cyclopropyl)sulfonyl)carbamoyl)-7,9-dimethyl-5,16-dioxo-1,2,3,5,6,7,8,9,10,11,13a,14,14a,15,16,16a-hexadecahydrocyclopropa[e]pyrrolo[1,2-a][1,4]diazacyclopentadecin-6-yl)carbamate]	0.51 to 1	1.01 to 5	–	–	–	–
